Measured values reported in patent US10059701B2 (Merck Patent GmbH, priority 2015, dated 2018).

Columns and labels:
IRAK4 = target: T1, IRAK4 (Homo sapiens, UniProt Q9NWZ3); assay: IRAK4 enzymatic assay (ADP-Glo luminescence); assay type: biochemical; settings: purified human recombinant His-TEV-IRAK4 (1-460), ATP 2 μM
T1 construct: His-TEV-IRAK4 (1-460); His (N); TEV cleavage site (N)
T1 sequence (Q9NWZ3 1-460): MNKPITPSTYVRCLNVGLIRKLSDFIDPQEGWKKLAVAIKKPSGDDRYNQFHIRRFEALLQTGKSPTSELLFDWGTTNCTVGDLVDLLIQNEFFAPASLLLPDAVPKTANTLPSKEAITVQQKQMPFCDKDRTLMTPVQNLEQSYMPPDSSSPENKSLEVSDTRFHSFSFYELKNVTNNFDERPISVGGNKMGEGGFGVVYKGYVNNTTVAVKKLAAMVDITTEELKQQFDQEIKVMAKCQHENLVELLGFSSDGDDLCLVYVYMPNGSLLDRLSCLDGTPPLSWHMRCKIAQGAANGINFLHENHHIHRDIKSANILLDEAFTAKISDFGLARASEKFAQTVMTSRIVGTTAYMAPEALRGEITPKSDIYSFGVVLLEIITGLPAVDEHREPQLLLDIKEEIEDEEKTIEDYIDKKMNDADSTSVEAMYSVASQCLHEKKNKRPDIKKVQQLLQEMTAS
Summary of the method: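 Recombinant His-TEV-IRAK4 (1-460) at 0.3 μg/ml preincubated 15 min at RT with compounds (10 μM to 0.5 nM) in Hepes pH 7.0 buffer with MgCl2/MnCl2. Reaction started with 2 μM ATP and 300 nM STK1-biotin peptide, run 2 h at RT. ADP formed read by ADP-Glo luminescence.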

IRAK1 = target: T2, IRAK1 (Homo sapiens, UniProt P51617); assay: IRAK1 enzymatic assay (ADP-Glo luminescence); assay type: biochemical; settings: purified human recombinant His-TEV-IRAK1 (194-712)
T2 construct: His-TEV-IRAK1 (194-712); His (N); TEV cleavage site (N)
T2 sequence (P51617 194-712): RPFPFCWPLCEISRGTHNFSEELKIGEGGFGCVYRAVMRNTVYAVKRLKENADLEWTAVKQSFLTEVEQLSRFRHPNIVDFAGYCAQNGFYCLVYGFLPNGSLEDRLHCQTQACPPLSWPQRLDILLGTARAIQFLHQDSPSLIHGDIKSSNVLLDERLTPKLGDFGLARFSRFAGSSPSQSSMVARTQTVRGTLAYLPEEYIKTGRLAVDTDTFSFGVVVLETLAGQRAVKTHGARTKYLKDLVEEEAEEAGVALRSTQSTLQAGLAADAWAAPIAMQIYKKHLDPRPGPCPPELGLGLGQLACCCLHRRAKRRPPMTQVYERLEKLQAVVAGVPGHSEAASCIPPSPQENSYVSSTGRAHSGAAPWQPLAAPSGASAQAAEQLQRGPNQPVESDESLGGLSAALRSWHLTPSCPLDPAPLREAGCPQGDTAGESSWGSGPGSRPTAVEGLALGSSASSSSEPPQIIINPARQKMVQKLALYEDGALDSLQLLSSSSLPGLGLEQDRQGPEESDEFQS
Summary of the method: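 Recombinant human His-TEV-IRAK1 (194-712), 0.3 μg/ml, preincubated 15 min at RT with compounds (10 μM to 0.5 nM) in 50 mM Hepes pH 7.0, 10 mM MgCl2, 2 mM DTT, 0.1% BSA. ATP-started reaction run 2 hours at RT; ADP formed from ATP hydrolysis/autophosphorylation read by ADP-Glo luminescence.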

SMILES | IC50 (IRAK4) | IC50 (IRAK1)
[2H]C([2H])([2H])Oc1cc2c(cc1N1CCOCC1=O)[nH]/c(=N\C(=O)c1cccc(C(F)(F)F)c1)n2CCCO [Example 202, (E)-N-(1-(3-hydroxypropyl)-6-(trideuteromethoxy)-5-(3-oxomorpholino)-1H-benzo[d]imidazol-2(3H)-ylidene)-3-(trifluoromethyl)benzamide] | ≤ 100 nM | ≤ 100 nM
[2H]C([2H])([2H])Oc1cc2c(cc1N1CCOCC1=O)[nH]/c(=N\C(=O)c1cccc(C(F)F)c1)n2CCCO [Example 203, (E)-3-(difluoromethyl)-N-(1-(3-hydroxypropyl)-6-(trideuteromethoxy)-5-(3-oxomorpholino)-1H-benzo[d]imidazol-2(3H)-ylidene)benzamide] | ≤ 100 nM | ≤ 100 nM
[2H]C([2H])([2H])Oc1cc2c(cc1N1CCCOC1=O)[nH]/c(=N\C(=O)c1cccc(C(F)(F)F)c1)n2CCCO [Example 204, (E)-N-(1-(3-hydroxypropyl)-6-(trideuteromethoxy)-5-(2-oxo-1,3-oxazinan-3-yl)-1H-benzo[d]imidazol-2(3H)-ylidene)-3-(trifluoromethyl)benzamide] | ≤ 100 nM | ≤ 100 nM
[2H]C([2H])([2H])Oc1cc2c(cc1N1CCCOC1=O)[nH]/c(=N\C(=O)c1cccc(C(F)F)c1)n2CCCO [Example 205, (E)-3-(difluoromethyl)-N-(1-(3-hydroxypropyl)-6-(trideuteromethoxy)-5-(2-oxo-1,3-oxazinan-3-yl)-1H-benzo[d]imidazol-2(3H)-ylidene)benzamide] | ≤ 100 nM | ≤ 100 nM
COc1cc2c(cc1N1CCCOC1=O)[nH]/c(=N\C(=O)c1cccc(C(F)(F)F)c1)n2CCCO [Example 206, (E)-N-(1-(3-hydroxypropyl)-6-methoxy-5-(2-oxo-1,3-oxazinan-3-yl)-1H-benzo[d]imidazol-2(3H)-ylidene)-3-(trifluoromethyl)benzamide] | ≤ 100 nM | ≤ 100 nM
COc1cc2c(cc1N1CCCOC1=O)[nH]/c(=N\C(=O)c1cccc(C(F)F)c1)n2CCCO [Example 207, (E)-3-(difluoromethyl)-N-(1-(3-hydroxypropyl)-6-methoxy-5-(2-oxo-1,3-oxazinan-3-yl)-1H-benzo[d]imidazol-2(3H)-ylidene)benzamide] | ≤ 100 nM | ≤ 100 nM
O=C(/N=c1\[nH]c2cc(N3CCOCC3=O)c(C3CC3)cc2n1CCCO)c1cccc(C(F)(F)F)c1 [Example 208, (E)-N-(6-cyclopropyl-1-(3-hydroxypropyl)-5-(3-oxomorpholino)-1H-benzo[d]imidazol-2(3H)-ylidene)-3-(trifluoromethyl)benzamide] | ≤ 100 nM | ≤ 100 nM
O=C(/N=c1\[nH]c2cc(N3CCOCC3=O)c(C3CC3)cc2n1CCCO)c1cccc(C(F)F)c1 [Example 209, (E)-N-(6-cyclopropyl-1-(3-hydroxypropyl)-5-(3-oxomorpholino)-1H-benzo[d]imidazol-2(3H)-ylidene)-3-(difluoromethyl)benzamide] | ≤ 100 nM | ≤ 100 nM
O=C(/N=c1\[nH]c2cc(N3CCOCC3=O)cc(F)c2n1CCCO)c1cccc(C(F)(F)F)c1 [Example 210, (E)-N-(7-fluoro-1-(3-hydroxypropyl)-5-(3-oxomorpholino)-1H-benzo[d]imidazol-2(3H)-ylidene)-3-(trifluoromethyl)benzamide] | ≤ 100 nM | 100 to 1000 nM

Continued, values first:

IC50 (IRAK4) | IC50 (IRAK1) | SMILES
≤ 100 nM | ≤ 100 nM | CC1(C)C(=O)N(c2ccc3c(c2)[nH]/c(=N\C(=O)c2cccc(C(F)F)c2)n3CCCO)CCN1C1CC1 [Example 188, (E)-N-(5-(4-cyclopropyl-3,3-dimethyl-2-oxopiperazin-1-yl)-1-(3-hydroxypropyl)-1H-benzo[d]imidazol-2(3H)-ylidene)-3-(difluoromethyl)benzamide]
≤ 100 nM | ≤ 100 nM | O=C(/N=c1\[nH]c2cc(N3C(=O)COCC34CC4)ccc2n1CCCO)c1cccc(C(F)(F)F)c1 [Example 189, (E)-N-(1-(3-hydroxypropyl)-5-(5-oxo-7-oxa-4-azaspiro[2.5]octan-4-yl)-1H-benzo[d]imidazol-2(3H)-ylidene)-3-(trifluoromethyl)benzamide]
≤ 100 nM | ≤ 100 nM | O=C(/N=c1\[nH]c2cc(N3C(=O)COCC34CC4)ccc2n1CCCO)c1cccc(C(F)F)c1 [Example 190, (E)-3-(difluoromethyl)-N-(1-(3-hydroxypropyl)-5-(5-oxo-7-oxa-4-azaspiro[2.5]octan-4-yl)-1H-benzo[d]imidazol-2(3H)-ylidene)benzamide]
≤ 100 nM | 100 to 1000 nM | O=C(/N=c1\[nH]c2cc(N3CCN(C4CC4)CCC3=O)ccc2n1CCCO)c1cccc(C(F)(F)F)c1 [Example 191, (E)-N-(5-(4-cyclopropyl-7-oxo-1,4-diazepan-1-yl)-1-(3-hydroxypropyl)-1H-benzo[d]imidazol-2(3H)-ylidene)-3-(trifluoromethyl)benzamide]
≤ 100 nM | 100 to 1000 nM | O=C(/N=c1\[nH]c2cc(N3CCCN(C4CC4)CC3=O)ccc2n1CCCO)c1cccc(C(F)(F)F)c1 [Example 192, (E)-N-(5-(4-cyclopropyl-2-oxo-1,4-diazepan-1-yl)-1-(3-hydroxypropyl)-1H-benzo[d]imidazol-2(3H)-ylidene)-3-(trifluoromethyl)benzamide]
≤ 100 nM | 100 to 1000 nM | O=C(/N=c1\[nH]c2cc(-n3ccccc3=O)ccc2n1CCCO)c1cccc(C(F)(F)F)c1 [Example 193, (E)-N-(1-(3-hydroxypropyl)-5-(2-oxopyridin-1(2H)-yl)-1H-benzo[d]imidazol-2(3H)-ylidene)-3-(trifluoromethyl)benzamide]
≤ 100 nM | 100 to 1000 nM | O=C(/N=c1\[nH]c2cc(-n3ccccc3=O)ccc2n1CCCO)c1cccc(C(F)F)c1 [Example 194, (E)-3-(difluoromethyl)-N-(1-(3-hydroxypropyl)-5-(2-oxopyridin-1(2H)-yl)-1H-benzo[d]imidazol-2(3H)-ylidene)benzamide]
≤ 100 nM | 100 to 1000 nM | CC1(C)C(=O)N(c2ccc3c(c2)[nH]/c(=N\C(=O)c2cccc(C(F)F)c2)n3CCCO)CCN1CCO [Example 195, (E)-3-(difluoromethyl)-N-(5-(4-(2-hydroxyethyl)-3,3-dimethyl-2-oxopiperazin-1-yl)-1-(3-hydroxypropyl)-1H-benzo[d]imidazol-2(3H)-ylidene)benzamide]
≤ 100 nM | 100 to 1000 nM | CC1(C)COC(=O)N1c1ccc2c(c1)[nH]/c(=N\C(=O)c1cccc(C(F)F)c1)n2CCCO [Example 196, (E)-3-(difluoromethyl)-N-(5-(4,4-dimethyl-2-oxooxazolidin-3-yl)-1-(3-hydroxypropyl)-1H-benzo[d]imidazol-2(3H)-ylidene)benzamide]
≤ 100 nM | ≤ 100 nM | O=C(/N=c1\[nH]c2cc(N3C(=O)CN(C4CC4)CC34CC4)ccc2n1CCCO)c1cccc(C(F)(F)F)c1 [Example 197, (E)-N-(5-(7-cyclopropyl-5-oxo-4,7-diazaspiro[2.5]octan-4-yl)-1-(3-hydroxypropyl)-1H-benzo[d]imidazol-2(3H)-ylidene)-3-(trifluoromethyl)benzamide]
≤ 100 nM | ≤ 100 nM | O=C(/N=c1\[nH]c2cc(N3C(=O)CN(C4CC4)CC34CC4)ccc2n1CCCO)c1cccc(C(F)F)c1 [Example 198, (E)-N-(5-(7-cyclopropyl-5-oxo-4,7-diazaspiro[2.5]octan-4-yl)-1-(3-hydroxypropyl)-1H-benzo[d]imidazol-2(3H)-ylidene)-3-(difluoromethyl)benzamide]
≤ 100 nM | 100 to 1000 nM | CC1(C)CN(c2ccc3c(c2)[nH]/c(=N\C(=O)c2cccc(C(F)(F)F)c2)n3CCCO)C(=O)O1 [Example 199, (E)-N-(5-(5,5-dimethyl-2-oxooxazolidin-3-yl)-1-(3-hydroxypropyl)-1H-benzo[d]imidazol-2(3H)-ylidene)-3-(trifluoromethyl)benzamide]
≤ 100 nM | 100 to 1000 nM | CC1(C)CN(c2ccc3c(c2)[nH]/c(=N\C(=O)c2cccc(C(F)F)c2)n3CCCO)C(=O)O1 [Example 200, (E)-3-(difluoromethyl)-N-(5-(5,5-dimethyl-2-oxooxazolidin-3-yl)-1-(3-hydroxypropyl)-1H-benzo[d]imidazol-2(3H)-ylidene)benzamide]
≤ 100 nM | ≤ 100 nM | O=C(/N=c1\[nH]c2cc(-n3ncccc3=O)ccc2n1CCCO)c1cccc(C(F)(F)F)c1 [Example 201, (E)-N-(1-(3-hydroxypropyl)-5-(6-oxopyridazin-1(6H)-yl)-1H-benzo[d]imidazol-2(3H)-ylidene)-3-(trifluoromethyl)benzamide]
